Tests used:
HCC = test: Response assessment; assay type: in vivo, human; settings: of 11 HCC patients; 3 based solely on symptomatic deterioration
[1] = Safety and tolerability, dose-limiting toxicities; assay type: in vivo, human; settings: for Dose-limiting toxicity, hyperbilirubinemia (number of patients): days 1–8
AAG and albumin = settings: bound to both AAG and albumin; cited from earlier work
[2] = cited from earlier work

In the case of `CS(=O)(=O)c1ccc(C(=O)Nc2ccc(Cl)c(-c3ccccn3)c2)c(Cl)c1` [vismodegib], the “HCC patients with progressive disease” value (HCC) is reported as “nine”, the “AEs grade 3 or 4 in severity” value ([1]; all cohorts) is reported as 67.7% and the “Total patients who experienced DLTs of hyperbilirubinemia” value ([1]; all cohorts, 31 patients) is reported as “three”. The “Patients who experienced at least one AE” value ([1]; all groups, 31 patients) was 96.8%, the “Adverse event frequency: abdominal pain” value ([1]; all patients) was 22.6% and the “Adverse event frequency: decreased appetite” value ([1]; all patients) was 22.6%. The “Adverse event frequency: dysgeusia” value ([1]; all patients) was 22.6%, the “Adverse event frequency: fatigue” value ([1]; all patients) was 67.7% and the “Adverse event frequency: muscle spasms” value ([1]; all patients) was 22.6%. The “Adverse event frequency: nausea” value ([1]; all patients) was 35.5%, the “Adverse event frequency: vomiting” value ([1]; all patients) was 22.6% and the “Serious AE: abdominal pain” value ([1]; all patients (2 patients)) was 6.5%. For the same molecule, the “Serious AE: hyperbilirubinemia” value ([1]; all patients (2 patients)) was 6.5%, the “Serious AE: upper gastrointestinal hemorrhage” value ([1]; all patients (2 patients)) was 6.5% and the “Patients who experienced serious AEs” value ([1]; all patients (16 patients)) was 51.6%. The “AEs grade 3 or 4 in severity” value ([1]; control cohort) was 44.4%, the “AEs grade 3 or 4 in severity” value ([1]; mild cohort) was 75% and the “Patients who experienced serious AEs” value ([1]; mild cohort (4 patients)) was 50%. For the same molecule, the “Adverse events leading to withdrawal of vismodegib: intracranial bleed” value ([1]; mild cohort n = 8) was 1 (intracranial bleed), the “Deaths due to progression of disease (number of patients)” value (“Deaths due to progression of disease” for short) ([1]; mild cohort n = 8) was 1 and the “Dose-limiting toxicity, hyperbilirubinemia (number of patients)” value ([1]; mild cohort n = 8, oral 150 mg daily) was 0. For the same molecule, the “AEs grade 3 or 4 in severity” value ([1]; moderate cohort) was 87.5%, the “Patients who experienced serious AEs” value ([1]; moderate cohort (6 patients)) was 75% and the “Adverse events leading to withdrawal of vismodegib: GI bleeds” value ([1]; moderate cohort n = 8) was 2. The “Adverse events leading to withdrawal of vismodegib: hyperbilirubinemia” value ([1]; moderate cohort n = 8) was 1, the “Deaths due to progression of disease” value ([1]; moderate cohort n = 8) was 3 and the “Patients who experienced serious AEs” value ([1]; normal cohort (3 patients)) was 33.3%. The “Adverse events leading to withdrawal of vismodegib” value ([1]; normal cohort n = 9) was 0, the “Deaths due to progression of disease” value ([1]; normal cohort n = 9) was 0 and the “Dose-limiting toxicity, hyperbilirubinemia (number of patients)” value ([1]; normal cohort n = 9, oral 150 mg daily) was 0. The “AEs grade 3 or 4 in severity” value ([1]; severe cohort) was 66.7%, the “Patients who experienced serious AEs” value ([1]; severe cohort (3 patients)) was 50% and the “Adverse events leading to withdrawal of vismodegib: fatigue” value ([1]; severe cohort n = 6) was 1. For the same molecule, the “Adverse events leading to withdrawal of vismodegib: hyperbilirubinemia” value ([1]; severe cohort n = 6) was 2, the “Adverse events leading to withdrawal of vismodegib: hyponatremia” value ([1]; severe cohort n = 6) was 1 and the “Adverse events leading to withdrawal of vismodegib: leukocytosis” value ([1]; severe cohort n = 6) was 1. For the same molecule, the “Deaths due to progression of disease” value ([1]; severe cohort n = 6) was 1, the Plasma protein bound (AAG and albumin) was “greater than 98%” and the “Cmax interpatient coefficient of variation” value [2] was roughly 37.4%. The “PK variability explained by AAG levels” value [2] was greater than 70%, the “Percentage of dose excreted in urine over a 24-h interval” value (all patients, regardless of hepatic function, day 8) was less than 1% and the “Renal clearance (CLR)” value (patients with hepatic impairment compared to normal hepatic function) was “lower”.

— paper PMC5520972 (Cancer chemotherapy and pharmacology, 2017)
